Measurements published in PMC8401933 (Molecules, 2021).

How the values were obtained:
Test in all cases: KINOMEscan binding
Settings in all cases: read-out: Percent Control
ERK5 = molecular target: T1, ERK5 (Homo sapiens, UniProt Q13164)
T1 construct: purchased Eurofins DiscoverX KINOMEscan

PIK3CA(Q546K) = molecular target: T2, PIK3CA(Q546K) (Homo sapiens, UniProt P42336, Q546K)
T2 construct: purchased Eurofins DiscoverX KINOMEscan

NEK11 = molecular target: T3, NEK11 (Homo sapiens, UniProt Q8NG66)
T3 construct: purchased Eurofins DiscoverX KINOMEscan

GCN2(Kin.Dom.2,S808G) = molecular target: T4, GCN2(Kin.Dom.2,S808G) (Homo sapiens, UniProt Q9P2K8, S808G)
T4 construct: GCN2(Kin.Dom.2,S808G); purchased Eurofins DiscoverX KINOMEscan

OSR1 = molecular target: T5, OSR1 (Homo sapiens, UniProt O95747)
T5 construct: purchased Eurofins DiscoverX KINOMEscan

WNK1 = molecular target: T6, WNK1 (Homo sapiens, UniProt Q9H4A3)
T6 construct: purchased Eurofins DiscoverX KINOMEscan

PIKFYVE = molecular target: T7, PIKFYVE (Homo sapiens, UniProt Q9Y2I7)
T7 construct: purchased Eurofins DiscoverX KINOMEscan

ULK3 = molecular target: T8, ULK3 (Homo sapiens, UniProt Q6PHR2)
T8 construct: purchased Eurofins DiscoverX KINOMEscan

ACVR2A = molecular target: T9, ACVR2A (Homo sapiens, UniProt P27037)
T9 construct: purchased Eurofins DiscoverX KINOMEscan

ITK = molecular target: T10, ITK (Homo sapiens, UniProt Q08881)
T10 construct: purchased Eurofins DiscoverX KINOMEscan

BRK = molecular target: T11, BRK (Homo sapiens, UniProt Q13882)
T11 construct: purchased Eurofins DiscoverX KINOMEscan

[1] = molecular target: T12, JAK1(JH2domain-pseudokinase) (Homo sapiens, UniProt P23458)
T12 construct: JAK1(JH2domain-pseudokinase); purchased Eurofins DiscoverX KINOMEscan

PIK3CA(H1047L) = molecular target: T13, PIK3CA(H1047L) (Homo sapiens, UniProt P42336, H1047L)
T13 construct: purchased Eurofins DiscoverX KINOMEscan

NDR2 = molecular target: T14, NDR2 (Homo sapiens, UniProt Q9Y2H1)
T14 construct: purchased Eurofins DiscoverX KINOMEscan

HIPK3 = molecular target: T15, HIPK3 (Homo sapiens, UniProt Q9H422)
T15 construct: purchased Eurofins DiscoverX KINOMEscan

KIT(L576P) = molecular target: T16, KIT(L576P) (Homo sapiens, UniProt P10721, L576P)
T16 construct: purchased Eurofins DiscoverX KINOMEscan

PIM2 = molecular target: T17, PIM2 (Homo sapiens, UniProt Q9P1W9)
T17 construct: purchased Eurofins DiscoverX KINOMEscan

TNK2 = molecular target: T18, TNK2 (Homo sapiens, UniProt Q07912)
T18 construct: purchased Eurofins DiscoverX KINOMEscan

CAMK1B = molecular target: T19, CAMK1B (Homo sapiens, UniProt Q6P2M8)
T19 construct: purchased Eurofins DiscoverX KINOMEscan

ABL1-nonphosphorylated = molecular target: T20, ABL1-nonphosphorylated (Homo sapiens, UniProt P00519)
T20 construct: purchased Eurofins DiscoverX KINOMEscan

PDGFRB = molecular target: T21, PDGFRB (Homo sapiens, UniProt P09619)
T21 construct: purchased Eurofins DiscoverX KINOMEscan

[2] = molecular target: T22, RPS6KA5(Kin.Dom.2-C-terminal) (Homo sapiens, UniProt O75582)
T22 construct: RPS6KA5(Kin.Dom.2-C-terminal); purchased Eurofins DiscoverX KINOMEscan

MYLK = molecular target: T23, MYLK (Homo sapiens, UniProt Q15746)
T23 construct: purchased Eurofins DiscoverX KINOMEscan

TAOK3 = molecular target: T24, TAOK3 (Homo sapiens, UniProt Q9H2K8)
T24 construct: purchased Eurofins DiscoverX KINOMEscan

GRK4 = molecular target: T25, GRK4 (Homo sapiens, UniProt P32298)
T25 construct: purchased Eurofins DiscoverX KINOMEscan

PIK3CA(M1043I) = molecular target: T26, PIK3CA(M1043I) (Homo sapiens, UniProt P42336, M1043I)
T26 construct: purchased Eurofins DiscoverX KINOMEscan

MINK = molecular target: T27, MINK (Homo sapiens, UniProt Q8N4C8)
T27 construct: purchased Eurofins DiscoverX KINOMEscan

EPHB1 = molecular target: T28, EPHB1 (Homo sapiens, UniProt P54762)
T28 construct: purchased Eurofins DiscoverX KINOMEscan

ALK = molecular target: T29, ALK (Homo sapiens, UniProt Q9UM73)
T29 construct: purchased Eurofins DiscoverX KINOMEscan

CAMK4 = molecular target: T30, CAMK4 (Homo sapiens, UniProt Q16566)
T30 construct: purchased Eurofins DiscoverX KINOMEscan

WNK4 = molecular target: T31, WNK4 (Homo sapiens, UniProt Q96J92)
T31 construct: purchased Eurofins DiscoverX KINOMEscan

[3] = molecular target: T32, ABL1(Q252H)-nonphosphorylated (Homo sapiens, UniProt P00519, Q252H)
T32 construct: purchased Eurofins DiscoverX KINOMEscan

IKK-beta = molecular target: T33, IKK-beta (Homo sapiens, UniProt O14920)
T33 construct: purchased Eurofins DiscoverX KINOMEscan

MLCK = molecular target: T34, MLCK (Homo sapiens, UniProt Q32MK0)
T34 construct: purchased Eurofins DiscoverX KINOMEscan

ERBB3 = molecular target: T35, ERBB3 (Homo sapiens, UniProt P21860)
T35 construct: purchased Eurofins DiscoverX KINOMEscan

PRKX = molecular target: T36, PRKX (Homo sapiens, UniProt P51817)
T36 construct: purchased Eurofins DiscoverX KINOMEscan

KIT(V559D,V654A) = molecular target: T37, KIT(V559D,V654A) (Homo sapiens, UniProt P10721, V559D/V654A)
T37 construct: purchased Eurofins DiscoverX KINOMEscan

ERBB4 = molecular target: T38, ERBB4 (Homo sapiens, UniProt Q15303)
T38 construct: purchased Eurofins DiscoverX KINOMEscan

BRSK1 = molecular target: T39, BRSK1 (Homo sapiens, UniProt Q8TDC3)
T39 construct: purchased Eurofins DiscoverX KINOMEscan

MEK2 = molecular target: T40, MEK2 (Homo sapiens, UniProt P36507)
T40 construct: purchased Eurofins DiscoverX KINOMEscan

CHEK1 = molecular target: T41, CHEK1 (Homo sapiens, UniProt O14757)
T41 construct: purchased Eurofins DiscoverX KINOMEscan

TIE2 = molecular target: T42, TIE2 (Homo sapiens, UniProt Q02763)
T42 construct: purchased Eurofins DiscoverX KINOMEscan

T7 sequence (Q9Y2I7 whole entry): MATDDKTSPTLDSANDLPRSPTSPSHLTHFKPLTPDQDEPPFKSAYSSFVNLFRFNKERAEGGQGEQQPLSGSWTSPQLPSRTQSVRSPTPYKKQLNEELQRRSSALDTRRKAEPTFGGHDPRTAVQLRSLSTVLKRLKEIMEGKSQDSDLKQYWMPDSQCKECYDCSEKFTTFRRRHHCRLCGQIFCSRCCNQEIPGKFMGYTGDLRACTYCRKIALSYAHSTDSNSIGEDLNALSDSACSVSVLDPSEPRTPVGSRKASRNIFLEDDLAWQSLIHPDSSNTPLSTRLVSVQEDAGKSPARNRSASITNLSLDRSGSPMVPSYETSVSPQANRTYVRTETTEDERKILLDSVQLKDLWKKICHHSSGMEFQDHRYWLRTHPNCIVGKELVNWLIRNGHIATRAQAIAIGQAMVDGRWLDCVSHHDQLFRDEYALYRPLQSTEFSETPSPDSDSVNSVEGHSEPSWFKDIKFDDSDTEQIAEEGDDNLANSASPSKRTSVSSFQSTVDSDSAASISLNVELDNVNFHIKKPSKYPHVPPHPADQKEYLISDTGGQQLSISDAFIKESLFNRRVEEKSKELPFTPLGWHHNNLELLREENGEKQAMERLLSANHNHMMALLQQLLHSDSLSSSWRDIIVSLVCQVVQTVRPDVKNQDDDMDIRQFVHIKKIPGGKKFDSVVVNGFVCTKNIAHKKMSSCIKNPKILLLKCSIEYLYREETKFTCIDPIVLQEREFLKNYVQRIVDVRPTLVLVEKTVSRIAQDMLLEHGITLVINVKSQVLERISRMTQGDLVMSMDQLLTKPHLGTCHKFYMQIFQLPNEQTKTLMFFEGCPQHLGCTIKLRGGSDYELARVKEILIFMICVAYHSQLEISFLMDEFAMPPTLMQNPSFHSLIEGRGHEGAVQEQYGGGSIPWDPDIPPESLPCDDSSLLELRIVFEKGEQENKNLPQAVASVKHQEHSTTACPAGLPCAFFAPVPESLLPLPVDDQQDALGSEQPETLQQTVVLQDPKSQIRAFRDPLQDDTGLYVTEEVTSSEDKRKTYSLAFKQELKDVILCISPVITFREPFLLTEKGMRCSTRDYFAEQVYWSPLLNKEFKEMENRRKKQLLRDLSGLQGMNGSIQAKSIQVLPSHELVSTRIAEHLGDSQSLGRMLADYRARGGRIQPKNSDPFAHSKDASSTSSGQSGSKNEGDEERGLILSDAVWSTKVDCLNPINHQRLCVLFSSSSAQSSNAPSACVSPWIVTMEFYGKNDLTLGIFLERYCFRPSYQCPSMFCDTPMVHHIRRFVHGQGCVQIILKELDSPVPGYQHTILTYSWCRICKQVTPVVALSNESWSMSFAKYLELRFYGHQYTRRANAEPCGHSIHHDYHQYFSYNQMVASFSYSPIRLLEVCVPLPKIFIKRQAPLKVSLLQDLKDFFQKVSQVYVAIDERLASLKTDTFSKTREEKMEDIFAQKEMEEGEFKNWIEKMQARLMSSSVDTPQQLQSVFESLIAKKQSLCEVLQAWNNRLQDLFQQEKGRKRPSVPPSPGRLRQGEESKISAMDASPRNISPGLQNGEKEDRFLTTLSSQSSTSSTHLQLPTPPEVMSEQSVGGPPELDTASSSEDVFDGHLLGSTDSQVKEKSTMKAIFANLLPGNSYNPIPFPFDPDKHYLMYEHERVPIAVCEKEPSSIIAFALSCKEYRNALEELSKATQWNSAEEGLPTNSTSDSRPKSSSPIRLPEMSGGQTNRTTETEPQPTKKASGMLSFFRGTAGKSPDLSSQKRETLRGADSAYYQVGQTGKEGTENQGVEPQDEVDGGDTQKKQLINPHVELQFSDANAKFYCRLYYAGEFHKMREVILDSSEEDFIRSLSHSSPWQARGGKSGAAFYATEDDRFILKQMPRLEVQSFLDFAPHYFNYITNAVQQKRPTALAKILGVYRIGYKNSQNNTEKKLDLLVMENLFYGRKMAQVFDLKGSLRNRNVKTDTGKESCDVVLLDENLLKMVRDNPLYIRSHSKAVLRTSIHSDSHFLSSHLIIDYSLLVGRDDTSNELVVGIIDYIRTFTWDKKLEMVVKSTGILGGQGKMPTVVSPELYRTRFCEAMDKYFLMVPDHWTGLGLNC
T15 sequence (Q9H422 whole entry): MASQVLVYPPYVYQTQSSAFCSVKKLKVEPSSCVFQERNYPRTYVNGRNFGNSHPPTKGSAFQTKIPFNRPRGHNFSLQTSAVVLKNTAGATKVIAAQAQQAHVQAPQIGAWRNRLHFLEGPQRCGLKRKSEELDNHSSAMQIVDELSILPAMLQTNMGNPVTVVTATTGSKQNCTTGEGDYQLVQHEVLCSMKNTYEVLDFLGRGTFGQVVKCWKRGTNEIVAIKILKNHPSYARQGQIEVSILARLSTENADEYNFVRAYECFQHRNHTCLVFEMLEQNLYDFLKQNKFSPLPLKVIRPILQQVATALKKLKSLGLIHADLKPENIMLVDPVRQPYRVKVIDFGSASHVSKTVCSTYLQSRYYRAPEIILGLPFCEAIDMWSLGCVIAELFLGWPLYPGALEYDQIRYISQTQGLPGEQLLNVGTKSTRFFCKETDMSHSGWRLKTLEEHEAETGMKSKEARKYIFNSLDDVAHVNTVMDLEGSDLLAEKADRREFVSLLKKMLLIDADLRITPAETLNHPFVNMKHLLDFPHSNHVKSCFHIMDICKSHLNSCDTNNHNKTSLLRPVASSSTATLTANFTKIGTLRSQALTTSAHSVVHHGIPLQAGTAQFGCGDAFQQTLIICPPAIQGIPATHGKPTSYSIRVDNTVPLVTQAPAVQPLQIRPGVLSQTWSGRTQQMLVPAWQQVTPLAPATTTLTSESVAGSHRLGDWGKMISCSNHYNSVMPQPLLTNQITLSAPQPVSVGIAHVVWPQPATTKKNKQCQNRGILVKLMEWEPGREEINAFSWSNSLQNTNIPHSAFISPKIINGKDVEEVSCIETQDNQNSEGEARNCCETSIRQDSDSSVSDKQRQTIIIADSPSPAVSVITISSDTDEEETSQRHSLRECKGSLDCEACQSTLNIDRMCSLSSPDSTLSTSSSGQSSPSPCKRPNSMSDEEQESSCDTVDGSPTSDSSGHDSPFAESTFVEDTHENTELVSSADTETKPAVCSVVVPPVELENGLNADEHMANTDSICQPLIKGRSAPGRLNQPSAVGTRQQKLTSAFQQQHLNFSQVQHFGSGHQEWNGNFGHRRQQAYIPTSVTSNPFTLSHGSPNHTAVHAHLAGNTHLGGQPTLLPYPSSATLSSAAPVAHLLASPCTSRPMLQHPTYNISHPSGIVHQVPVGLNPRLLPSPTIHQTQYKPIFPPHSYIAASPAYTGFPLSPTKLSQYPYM
T31 sequence (Q96J92 whole entry): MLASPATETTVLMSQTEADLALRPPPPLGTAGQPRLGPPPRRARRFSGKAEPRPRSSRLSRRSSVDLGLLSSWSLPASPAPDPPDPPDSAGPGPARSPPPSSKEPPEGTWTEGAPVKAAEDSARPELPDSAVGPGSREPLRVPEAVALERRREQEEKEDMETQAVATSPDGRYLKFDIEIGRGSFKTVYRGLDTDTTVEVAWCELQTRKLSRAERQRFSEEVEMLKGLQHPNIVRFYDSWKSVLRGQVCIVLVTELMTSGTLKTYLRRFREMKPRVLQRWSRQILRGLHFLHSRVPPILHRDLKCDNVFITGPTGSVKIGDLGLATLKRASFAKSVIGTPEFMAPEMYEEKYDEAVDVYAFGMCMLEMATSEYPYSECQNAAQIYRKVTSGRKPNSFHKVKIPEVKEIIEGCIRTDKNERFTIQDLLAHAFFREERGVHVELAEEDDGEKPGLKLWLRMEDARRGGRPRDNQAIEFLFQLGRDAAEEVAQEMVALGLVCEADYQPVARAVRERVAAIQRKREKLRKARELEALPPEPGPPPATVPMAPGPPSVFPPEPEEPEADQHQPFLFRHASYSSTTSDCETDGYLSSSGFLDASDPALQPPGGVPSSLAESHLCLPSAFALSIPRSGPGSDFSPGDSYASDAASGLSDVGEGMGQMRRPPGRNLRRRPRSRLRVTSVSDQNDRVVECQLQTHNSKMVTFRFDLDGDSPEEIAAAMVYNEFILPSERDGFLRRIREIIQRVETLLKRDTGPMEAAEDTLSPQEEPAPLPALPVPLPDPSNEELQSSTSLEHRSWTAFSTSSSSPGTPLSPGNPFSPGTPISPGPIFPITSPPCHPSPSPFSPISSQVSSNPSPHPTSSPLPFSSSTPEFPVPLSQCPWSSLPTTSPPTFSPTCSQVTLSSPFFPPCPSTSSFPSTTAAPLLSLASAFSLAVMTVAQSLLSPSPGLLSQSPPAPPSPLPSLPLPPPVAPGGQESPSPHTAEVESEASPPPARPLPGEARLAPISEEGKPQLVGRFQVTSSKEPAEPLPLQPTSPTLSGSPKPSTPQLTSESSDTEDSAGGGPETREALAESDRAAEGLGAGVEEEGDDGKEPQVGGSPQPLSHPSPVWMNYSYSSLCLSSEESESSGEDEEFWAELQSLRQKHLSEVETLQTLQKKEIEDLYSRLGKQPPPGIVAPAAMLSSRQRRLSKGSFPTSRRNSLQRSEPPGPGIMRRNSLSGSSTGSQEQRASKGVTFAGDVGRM
T12 sequence (P23458 545-874 limits assumed): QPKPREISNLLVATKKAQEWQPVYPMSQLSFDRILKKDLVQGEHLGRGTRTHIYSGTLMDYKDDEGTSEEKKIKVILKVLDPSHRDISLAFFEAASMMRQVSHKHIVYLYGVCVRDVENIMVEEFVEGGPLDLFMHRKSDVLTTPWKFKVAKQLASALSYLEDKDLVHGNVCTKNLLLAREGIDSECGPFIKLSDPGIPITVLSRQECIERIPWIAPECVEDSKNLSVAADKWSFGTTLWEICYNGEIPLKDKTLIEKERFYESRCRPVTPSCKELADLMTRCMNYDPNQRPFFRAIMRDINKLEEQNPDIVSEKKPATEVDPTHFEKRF

CC(C)NC(=O)COc1cccc(-c2nc(Nc3ccc4[nH]ncc4c3)c3ccccc3n2)c1 [KD025, 2-(3-(4-((1H-indazol-5-yl)amino)quinazolin-2-yl)phenoxy)-N-isopropylacetamide]
remaining binding at 10 µM (ERK5): 100% | remaining binding at 10 µM (PIK3CA(Q546K)): 84% | remaining binding at 10 µM (NEK11): 99% | remaining binding at 10 µM (GCN2(Kin.Dom.2,S808G)): 100% | remaining binding at 10 µM (OSR1): 100% | remaining binding at 10 µM (WNK1): 94% | remaining binding at 10 µM (PIKFYVE): 12% | remaining binding at 10 µM (ULK3): 90% | remaining binding at 10 µM (ACVR2A): 99% | remaining binding at 10 µM (ITK): 92% | remaining binding at 10 µM (BRK): 86% | remaining binding at 10 µM [1]: 39% | remaining binding at 10 µM (PIK3CA(H1047L)): 82% | remaining binding at 10 µM (NDR2): 77% | remaining binding at 10 µM (HIPK3): 100% | remaining binding at 10 µM (KIT(L576P)): 74% | remaining binding at 10 µM (PIM2): 85% | remaining binding at 10 µM (TNK2): 82% | remaining binding at 10 µM (CAMK1B): 97% | remaining binding at 10 µM (ABL1-nonphosphorylated): 78% | remaining binding at 10 µM (PDGFRB): 76% | remaining binding at 10 µM [2]: 86% | remaining binding at 10 µM (MYLK): 66% | remaining binding at 10 µM (TAOK3): 89% | remaining binding at 10 µM (GRK4): 16% | remaining binding at 10 µM (PIK3CA(M1043I)): 48% | remaining binding at 10 µM (MINK): 71% | remaining binding at 10 µM (EPHB1): 98% | remaining binding at 10 µM (ALK): 54% | remaining binding at 10 µM (CAMK4): 100% | remaining binding at 10 µM (WNK4): 100% | remaining binding at 10 µM [3]: 85% | remaining binding at 10 µM (IKK-beta): 100% | remaining binding at 10 µM (MLCK): 100% | remaining binding at 10 µM (ERBB3): 79% | remaining binding at 10 µM (PRKX): 81% | remaining binding at 10 µM (KIT(V559D,V654A)): 92% | remaining binding at 10 µM (ERBB4): 57% | remaining binding at 10 µM (BRSK1): 93% | remaining binding at 10 µM (MEK2): 86% | remaining binding at 10 µM (CHEK1): 100% | remaining binding at 10 µM (TIE2): 55%
